The record followed here is US8268775B2, “Macrolactone derivatives” (Sanofi, priority 2007, dated 2012).

This test concerns Candida albicans FH 2173. Put plainly: Antifungal activity against Candida albicans, bouillon dilution method (microdilution). Conditions: FH2173, growth inhibition by 50%, Mueller Hinton broth, 37° C., 20 hours, absorption at 590 nm. Format: cell-based. The method, then:
For the detection of the antifungal activity of rapidly growing, aerobic causative organisms, the bouillon dilution method (microdilution) according to a procedure of the CLSI (Clinical and Laboratory Standards Institute, M7-A7, Vol. 26, No. 2) is used. The IC50 value was determined. This is the concentration of an active substance which is necessary in order to inhibit the growth of the test organism Candida albicans by 50%.
A stock solution of 1000 μg/ml of active substance [for example the compound of the formula (II) or the compound of the formula (IV)] in methanol was prepared. The test strain (Candida albicans FH 2173) was stored at −80° C. The inoculum was prepared from a fresh, liquid preculture. The preculture was prepared from a bead of the material stored at −80° C. and 30 ml of nutrient medium (Sabourad dextrose broth, Difco) and incubated at 37° C. and 180 revolutions per minute for 24 hours. The inoculum is to be adjusted such that after the inoculation of the test container the necessary number of colony-forming units is achieved. For this, the inoculum was adjusted to a value of 10^7 CFU/ml (CFU: colony forming units) by means of a photometer at a wavelength of 590 nm. […] The exact colony count was determined by means of surface culture. […] The microtiter plates were read with the aid of a photometer at a wavelength of 590 nm by measurement of the absorption. […]

Structures are written as SMILES. Converted amounts (≈) assume the structure as drawn.

For orientation: IC50 means the concentration at which inhibition is half-maximal. Read a high IC50 as weaker potency. As to `CCC(C)C1C(=O)NC(Cc2cc(Cl)c(OC)c(Cl)c2)C(=O)NC(C(C)(C)O)C(=O)OC(c2ccccc2)C(C)/C=C/C=C(\C)C(OC)CC2OC2(C)C(=O)N1C` (centres unmarked) [Compound (IV)], the IC50 came out at 0.41 µg/mL (≈ 0.493 µM).

Turning to `CCC(C)C1C(=O)NC(Cc2cc(Cl)c(O)c(Cl)c2)C(=O)NC(C(C)(C)O)C(=O)OC(c2ccccc2)C(C)/C=C/C=C(\C)C(OC)CC2OC2(C)C(=O)N1C` (centres unmarked) [Compound (II)], 0.06 µg/mL (≈ 0.0735 µM) corresponded to half-maximal inhibition (IC50).
